Reference: patent US9890147B2 (BAYER PHARMA AKTIENGESELLSCHAFT, priority 2012, dated 2018)

What was measured:
BRD4 (BD1) = biological target: T1, BRD4 (BD1) (Homo sapiens, UniProt O60885); assay: Binding assay BRD4/acetylated peptide H4 (TR-FRET protein-protein interaction assay)
T1 construct: with relatively long constructs also being possible, preferably amino acids 44-168; made in house; host or cells: E. coli
Summary of the method: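 His6-BRD4 BD1 (aa 67-152, E. coli), usually 10 nM, with biotinylated tetra-acetylated H4 peptide in HEPES pH 7.5 buffer; 11 compound concentrations 0.1 nM–20 μM in duplicate, 10 min preincubation, 1 h at 22 °C then ≥3 h at 4 °C. TR-FRET 665/620 ratio; IC50 by 4-parameter fit.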

MOLM-13 cells = assay: Cell proliferation assay (alamarBlue), MOLM-13; format: cell-based; conditions: Homo sapiens, 96 hours incubation, inhibition of cell proliferation
Method: In accordance with the invention, the capability of the substances to inhibit cell proliferation was determined Cell viability was determined using the alamarBlue® reagent (Invitrogen) in a Victor X3 Multilabel Reader (Perkin Elmer). The excitation wavelength was 530 nm and the emission wavelenth […].
The MOLM-13 cells (DSMZ, ACC 554) were sown at a concentration of 4000 cells/well in 100 μl growth medium (RPMI1640, 10% FCS) on 96-well microtitre plates.
After an overnight incubation at 37° C., the fluorescence values (CI values) were determined. The plates were then treated with various substance dilutions (1E-5 M, 3E-6 M, 1E-6M, 3E-7 M, 1E-7 M, 3E-8 M, 1E-8 M) and incubated at 37° C. for 72 (MV4-11-, LOX-IMVI cells), 96 (MOLM-13-, B16F10-, MDA-MB-431-, Caov-3 cells), 120 (MOLP-8-, KMS-12-PE cells) or 168 (LAPC-4 cells) hours. The fluorescence values (CO values) were then determined. For the data analysis, the CI values were subtracted from the CO values and the results were compared between cells treated with different dilutions of the substance or with buffer solution only. These were used to calculate the IC 50 values (substance concentration required for 50% inhibition of cell proliferation).

SMILES	IC50 (BRD4 (BD1)) [nM]	IC50 (MOLM-13 cells) [nM]
CNC(=O)N1N=C(c2ccc(-c3ccccc3S(C)(=O)=O)cc2)c2cc(OC)c(OC)cc2CC1C (racemic) [Example 69, (±)-7,8-dimethoxy-N,4-dimethyl-1-[2′-(methylsulphonyl)biphenyl-4-yl]-4,5-dihydro-3H-2,3-benzodiazepine-3-carboxamide]	130	1210
CNC(=O)N1N=C(c2ccc(N3CCC(C)(O)CC3)cc2)c2cc(OC)c(OC)cc2C[C@H]1C [Example 188.1, (4R)-1-[4-(4-hydroxy-4-methylpiperidin-1-yl)phenyl]-7,8-dimethoxy-N,4-dimethyl-4,5-dihydro-3H-2,3-benzodiazepine-3-carboxamide]	270	1130
CNC(=O)N1N=C(c2ccc(-c3ccnn3C)cc2)c2cc(OC)c(OC)cc2CC1C (racemic) [Example 101, (±)-7,8-dimethoxy-N,4-dimethyl-1-[4-(1-methyl-1H-pyrazol-5-yl)phenyl]-4,5-dihydro-3H-2,3-benzodiazepine-3-carboxamide]	60	650
CNC(=O)N1N=C(c2ccc(Cl)cc2)c2cc(OCCN3CCN(C)CC3)ccc2CC1C (racemic) [Example 166, (±)-1-(4-chlorophenyl)-N,4-dimethyl-8-[2-(4-methylpiperazin-1-yl)ethoxy]-4,5-dihydro-3H-2,3-benzodiazepine-3-carboxamide]	270	670
CNC(=O)N1N=C(c2ccc(-c3ccccc3Cl)cc2)c2cc(OC)c(OC)cc2CC1C (racemic) [Example 92, (±)-1-(2′-chlorobiphenyl-4-yl)-7,8-dimethoxy-N,4-dimethyl-4,5-dihydro-3H-2,3-benzodiazepine-3-carboxamide]	180	850
CCc1cc(C2CC2)n(-c2ccc(C3=NN(C(=O)NC)[C@@H](C)Cc4ccc(OC)cc43)cc2)n1 [Example 25, (4S)-1-[4-(5-cyclopropyl-3-ethyl-1H-pyrazol-1-yl)phenyl]-8-methoxy-N,4-dimethyl-4,5-dihydro-3H-2,3-benzodiazepine-3-carboxamide]	160	740
CNC(=O)N1N=C(c2ccc(-c3ccc(S(=O)(=O)NC)cc3)cc2)c2cc(OC)c(OC)cc2CC1C (racemic) [Example 115, (±)-7,8-dimethoxy-N,4-dimethyl-1-[4′-(methylsulphamoyl)biphenyl-4-yl]-4,5-dihydro-3H-2,3-benzodiazepine-3-carboxamide]	50	460
CNC(=O)N1N=C(c2ccc(-c3cnc(OC)nc3)cc2)c2cc(OC)c(OC)cc2CC1C (racemic) [Example 74, (±)-7,8-dimethoxy-1-[4-(2-methoxypyrimidin-5-yl)phenyl]-N,4-dimethyl-4,5-dihydro-3H-2,3-benzodiazepine-3-carboxamide]	80	550
CNC(=O)N1N=C(c2ccc(N3CCCOC3=O)cc2)c2cc(OC)c(OC)cc2CC1C (racemic) [Example 38, (±)-7,8-dimethoxy-N,4-dimethyl-1-[4-(2-oxo-1,3-oxazinan-3-yl)phenyl]-4,5-dihydro-3H-2,3-benzodiazepine-3-carboxamide]	120	730
CNC(=O)N1N=C(c2ccc(N3CCN(Cc4ccccc4)CC3=O)cc2)c2cc(OC)c(OC)cc2CC1C (racemic) [Example 36, (±)-1-[4-(4-benzyl-2-oxopiperazin-1-yl)phenyl]-7,8-dimethoxy-N,4-dimethyl-4,5-dihydro-3H-2,3-benzodiazepine-3-carboxamide]	260	1160
CNC(=O)N1N=C(c2ccc(N3CCOCC3)cc2)c2cc(OC)c(OC)cc2C[C@H]1C [Example 7.1, (4R)-7,8-dimethoxy-N,4-dimethyl-1-[4-(morpholin-4-yl)phenyl]-4,5-dihydro-3H-2,3-benzodiazepine-3-carboxamide]	3190	> 10000
CNC(=O)N1N=C(c2cccc(N3CCOCC3)c2)c2cc(OC)c(OC)cc2CC1C (racemic) [Example 140, (±)-7,8-dimethoxy-N,4-dimethyl-1-[3-(morpholin-4-yl)phenyl]-4,5-dihydro-3H-2,3-benzodiazepine-3-carboxamide]	60	470
CNC(=O)N1N=C(c2ccc(-c3ccc(C#N)cc3)cc2)c2cc(OC)c(OC)cc2CC1C (racemic) [Example 106, (±)-1-(4′-cyanobiphenyl-4-yl)-7,8-dimethoxy-N,4-dimethyl-4,5-dihydro-3H-2,3-benzodiazepine-3-carboxamide]	90	2550
CNC(=O)N1N=C(c2ccc(-n3nc(C(F)(F)F)cc3C)cc2)c2cc(OC)c(OC)cc2CC1C (racemic) [Example 151, (±)-7,8-dimethoxy-N,4-dimethyl-1-{4-[5-methyl-3-(trifluoromethyl)-1H-pyrazol-1-yl]phenyl}-4,5-dihydro-3H-2,3-benzodiazepine-3-carboxamide]	20	1310
CNC(=O)N1N=C(c2cccc(-c3cnn(C)c3)c2)c2cc(OC)c(OC)cc2CC1C (racemic) [Example 54, (±)-7,8-dimethoxy-N,4-dimethyl-1-[3-(1-methyl-1H-pyrazol-4-yl)phenyl]-4,5-dihydro-3H-2,3-benzodiazepine-3-carboxamide]	50	440
CNC(=O)N1N=C(c2ccc(-c3cc(C)cc(F)c3)cc2)c2cc(OC)c(OC)cc2CC1C (racemic) [Example 120, (±)-1-(3′-fluoro-5′-methylbiphenyl-4-yl)-7,8-dimethoxy-N,4-dimethyl-4,5-dihydro-3H-2,3-benzodiazepine-3-carboxamide]	190	800
CNC(=O)N1N=C(c2ccc(-c3ccc(Cl)cc3Cl)cc2)c2cc(OC)c(OC)cc2CC1C (racemic) [Example 61, (±)-1-(2′,4′-dichlorobiphenyl-4-yl)-7,8-dimethoxy-N,4-dimethyl-4,5-dihydro-3H-2,3-benzodiazepine-3-carboxamide]	570	2110
CNC(=O)N1N=C(c2ccc(N3CCN(C(C)=O)CC3)cc2)c2cc(OC)c(OC)cc2C[C@@H]1C [Example 132.2, (4S)-1-[4-(4-acetylpiperazin-1-yl)phenyl]-7,8-dimethoxy-N,4-dimethyl-4,5-dihydro-3H-2,3-benzodiazepine-3-carboxamide]	20	230
CNC(=O)N1N=C(c2ccc(-n3nc(-c4ccccc4)cc3C(F)(F)F)cc2)c2cc(OC)c(OC)cc2CC1C (racemic) [Example 149, (±)-7,8-dimethoxy-N,4-dimethyl-1-{4-[3-phenyl-5-(trifluoromethyl)-1H-pyrazol-1-yl]phenyl}-4,5-dihydro-3H-2,3-benzodiazepine-3-carboxamide]	1620	3000
CNC(=O)N1N=C(c2ccc(-c3cccc(S(N)(=O)=O)c3)cc2)c2cc(OC)c(OC)cc2CC1C (racemic) [Example 114, (±)-7,8-dimethoxy-N,4-dimethyl-1-(3′-sulphamoylbiphenyl-4-yl)-4,5-dihydro-3H-2,3-benzodiazepine-3-carboxamide]	40	300
CNC(=O)N1N=C(c2ccc(Cl)cc2)c2cc(OCCCN3CCOCC3)ccc2CC1C (racemic) [Example 165, (±)-1-(4-chlorophenyl)-N,4-dimethyl-8-[3-(morpholin-4-yl)propoxy]-4,5-dihydro-3H-2,3-benzodiazepine-3-carboxamide]	130	880
CNC(=O)N1N=C(c2ccc(-c3c(C)noc3C)cc2)c2cc(NC(C)=O)ccc2CC1C (racemic) [Example 173, (±)-8-Acetamido-1-[4-(3,5-dimethylisoxazol-4-yl)phenyl]-N,4-dimethyl-4,5-dihydro-3H-2,3-benzodiazepine-3-carboxamide]	180	1210
CNC(=O)N1N=C(c2ccc(N3CCNC(=O)C3)cc2)c2cc(OC)c(OC)cc2CC1C (racemic) [Example 137, (±)-7,8-dimethoxy-N,4-dimethyl-1-[4-(3-oxopiperazin-1-yl)phenyl]-4,5-dihydro-3H-2,3-benzodiazepine-3-carboxamide]	60	490
CNC(=O)N1N=C(c2ccc(-c3cccnc3OC)cc2)c2cc(OC)c(OC)cc2CC1C (racemic) [Example 76, (±)-7,8-dimethoxy-1-[4-(2-methoxypyridin-3-yl)phenyl]-N,4-dimethyl-4,5-dihydro-3H-2,3-benzodiazepine-3-carboxamide]	50	750
CNC(=O)N1N=C(c2ccc(Cl)cc2)c2cc(OC(F)(F)F)c(Cl)cc2CC1C (single isomer, unassigned) [Example 15.1, 7-Chloro-1-(4-chlorophenyl)-N,4-dimethyl-8-(trifluoromethoxy)-4,5-dihydro-3H-2,3-benzodiazepine-3-carboxamide]	450	3050
